What all share (assay type): functional
Experiment [1] concerns Acinetobacter calcoaceticus. Briefly: Antibacterial activity against Acinetobacter calcoaceticus OSMPV 113 (Gram negative) strain.
The test system of experiment [2] is Escherichia coli. Briefly: Antibacterial activity against Escherichia coli ATCC 8739(Gram negative) strain.
For experiment [3], the system named is Escherichia coli. Briefly: Antibacterial activity against Escherichia coli ISF 432(Gram negative) strain.
For experiment [4], the system named is Enterobacter cloacae. Nature of the experiment: Antibacterial activity against Enterobacter cloacae OMNFI 174 (Gram negative) strain.
Experiment [5] concerns Klebsiella pneumoniae. Nature of the experiment: Antibacterial activity against Klebsiella pneumoniae ATCC 10031 (Gram negative) strain.
Experiment [6] deals with Providencia stuartii. Briefly: Antibacterial activity against Providencia stuartii CNUR 5(Gram negative) strain.
In experiment [7] the test system is Pseudomonas aeruginosa. Briefly: Antibacterial activity against Pseudomonas aeruginosa ATCC 9027(Gram negative) strain.
Experiment [8] deals with Shigella. Nature of the experiment: Antibacterial activity against Shigella enteritidis (Gram negative) strain.
Experiment [9] relates to Staphylococcus epidermidis. Briefly: Antibacterial activity against Staphylococcus epidermidis HCF Berset C (Gram positive) strain.
The test system of experiment [10] is Staphylococcus epidermidis. Nature of the experiment: Antibacterial activity against Staphylococcus epidermidis CPHL A2 (Gram positive) strain, activity is expressed as log2MIC.
For experiment [11], the system named is Staphylococcus aureus. Nature of the experiment: Antibacterial activity against Staphylococcus aureus MPR 5 (Gram positive) strain.
The subject of experiment [12] is Enterococcus faecalis. Briefly: Antibacterial activity against Streptococcus faecalis LEP Br (Gram positive) strain.
The test system of experiment [13] is Staphylococcus aureus. Nature of the experiment: Antibacterial activity against Staphylococcus aureus ATCC 6538 (Gram positive) strain.
Experiment [14] concerns Staphylococcus epidermidis. Nature of the experiment: The compound was tested in vitro for antibacterial activity against Staphylococcus epidermidis CPHL A2 (Gram positive) strain.

SMILES strings stand for the structures.

For the molecule `Nc1cc2c(=O)c(C(=O)O)cn(C3CC3)c2c(F)c1N1CCSCC1`, the “Log2 MIC” value is listed as 7 in [1]; 10 in experiment [2]; 11 in [3]; 7 in [4]; 12 in experiment [5]; 8 in experiment [6]. In addition, the “Log2 MIC” value in [7] amounted to 5; in experiment [8], 5; in experiment [9], 7; in experiment [10], 8; in [11], 9; in experiment [12] it was 5. Besides, the “Log2 MIC” value in experiment [13] is 8.

On to `NCCN1CCN(c2cc3c(cc2N)c(=O)c(C(=O)O)cn3C2CC2)CC1`, for which the “Log2 MIC” value in [1] is 2; in experiment [2] it was 8; in [3] it was 8; in experiment [4] it was 6; in [5], 8; in experiment [6] it was 0. Further, the “Log2 MIC” value in experiment [7] is on record as 2; in experiment [8] it was 6; in experiment [9], 2; in experiment [10], 1; in [11] it was 0; in [12], 0. For the same molecule, the “Log2 MIC” value in [13] is given as 0.

Take `NCCSc1cc2c(cc1N)c(=O)c(C(=O)O)cn2C1CC1`: the “Log2 MIC” value in experiment [1] is 0; in experiment [2], 7; in experiment [3], 7; in [4] it was 0; in experiment [5] it was 6; in experiment [6], 0. Moreover, the “Log2 MIC” value in experiment [7], in experiment [8], in experiment [9], in [10], in experiment [11] and in experiment [12] was 0 throughout. Further, the “Log2 MIC” value in [13] is listed as 0.

As to `CN1CCN(c2cc3c(c(N)c2N)c(=O)c(C(=O)O)cn3C2CC2)CC1`, the “Log2 MIC” value in [1] is reported as 0; in experiment [2], 3; in experiment [3], 3; in experiment [4], 0; in [5], 2; in [6], 0. Besides, the “Log2 MIC” value in experiment [7], in [8], in experiment [9], in experiment [10], in experiment [11] and in [12] was 0 in each case. In addition, the “Log2 MIC” value in experiment [13] stood at 0.

In the case of `Nc1cc2c(=O)c(C(=O)O)cn(C3CC3)c2cc1N1CCSCC1`, the “Log2 MIC” value in experiment [1] is on record as 7; in experiment [2] it was 12; in experiment [3], 12; in [4], 8; in experiment [5], 12; in [6] it was 7. Besides, the “Log2 MIC” value in experiment [7] was 6; in [8] it was 8; in experiment [9], 6; in experiment [10] it was 7; in [11], 8; in experiment [12] it was 4. Besides, the “Log2 MIC” value in experiment [13] came out at 8.

Take `Nc1cc2c(=O)c(C(=O)O)cn(C3CC3)c2cc1N1CCCC1`: the “Log2 MIC” value is listed as 0 in experiment [1]; 9 in experiment [2]; 9 in experiment [3]; 4 in experiment [4]; 9 in [5]; 0 in experiment [6]. Further, the “Log2 MIC” value in [7] amounted to 0; in experiment [8], 3; in experiment [9], 0; in experiment [10], 0; in experiment [11], 0; in experiment [12], 0. Moreover, the “Log2 MIC” value in experiment [13] is given as 0.

With `Nc1cc2c(=O)c(C(=O)O)cn(-c3ccc(F)cc3)c2cc1N1CCSCC1`, the “Log2 MIC” value is given as 5 in experiment [1]; 11 in [2]; 12 in experiment [3]; 5 in experiment [4]; 12 in experiment [5]; 5 in [6]. For the same molecule, the “Log2 MIC” value worked out at 0 in [7]; 5 in [8]; 5 in [9]; 5 in experiment [10]; 7 in experiment [11]; 0 in experiment [12]. For the same molecule, the “Log2 MIC” value in experiment [13] came out at 8.

As to `CN1CCN(c2cc3c(cc2N)c(=O)c(C(=O)O)cn3-c2ccc(F)cc2)CC1`, the “Log2 MIC” value in experiment [1] is listed as 3; in experiment [2], 10; in [3], 10; in experiment [4] it was 5; in [5], 10; in experiment [6], 5. Besides, the “Log2 MIC” value stood at 4 in experiment [7]; 5 in [8]; 4 in experiment [9]; 4 in experiment [10]; 5 in experiment [11]; 1 in experiment [12]. In addition, the “Log2 MIC” value in experiment [13] amounted to 4.

On to `Cc1c(N2CCNCC2)c(N)cc2c(=O)c(C(=O)O)cn(C3CC3)c12`, for which the “Log2 MIC” value in experiment [1] is 6; in experiment [2], 12; in [3], 12; in experiment [4], 11; in experiment [5] it was 12; in [6], 6. In addition, the “Log2 MIC” value was determined as 7 in [7]; 12 in experiment [8]; 4 in experiment [9]; 5 in experiment [10]; 5 in experiment [11]; 3 in experiment [12]. Moreover, the “Log2 MIC” value in experiment [13] was determined as 6.

On to `Nc1cc2c(=O)c(C(=O)O)cn(C3CC3)c2cc1N1CCC(O)CC1`, for which the Log2 MIC was 0 in [1]; 12 in experiment [2]; 12 in experiment [3]; 6 in experiment [4]; 12 in [5]; 4 in experiment [6]. Moreover, the “Log2 MIC” value in experiment [7] was 4; in experiment [8], 6; in [9] it was 5; in [10] it was 6; in experiment [11], 5; in experiment [12], 4. Further, the “Log2 MIC” value in experiment [13] came to 5.

Consider `CN1CCN(c2cc3c(cc2N)c(=O)c(C(=O)O)cn3C(C)(C)C)CC1`, for which the “Log2 MIC” value in experiment [1] is given as 5; in experiment [2], 11; in experiment [3], 11; in [4] it was 7; in experiment [5] it was 11; in experiment [6], 5. In addition, the “Log2 MIC” value in experiment [7] was 5; in experiment [8], 7; in [9], 5; in experiment [10] it was 6; in experiment [11] it was 6; in experiment [12] it was 2. In addition, the “Log2 MIC” value in [13] stood at 6.

On to `N#CCN1CCN(c2cc3c(cc2N)c(=O)c(C(=O)O)cn3C2CC2)CC1`, for which the “Log2 MIC” value in [1] was 1; in [2], 5; in experiment [3], 6; in experiment [4] it was 6; in [5], 6; in experiment [6], 1. Further, the “Log2 MIC” value in [7] worked out at 2; in experiment [8] it was 6; in experiment [9] it was 1; in [10], 1; in [11], 1; in experiment [12], 1. The “Log2 MIC” value in experiment [13] is reported as 1.

In the case of `Cc1c(N2Cc3ccccc3C2)c(N)cc2c(=O)c(C(=O)O)cn(C3CC3)c12`, the “Log2 MIC” value in experiment [2] turned out to be 13; in experiment [3], 13; in experiment [4], 9; in experiment [5] it was 11; in experiment [6], 11; in experiment [7], 8. Besides, the “Log2 MIC” value in [8] is recorded as 9; in experiment [9], 12; in experiment [14], 13; in [11], 13; in experiment [12] it was 9; in [13], 13.

With `CC(C)(C)n1cc(C(=O)O)c(=O)c2cc(N)c(N3CCN(c4ccccn4)CC3)cc21`, the “Log2 MIC” value in experiment [1] is recorded as 7; in experiment [2], 8; in experiment [3], 8; in [4] it was 1; in experiment [5] it was 9; in experiment [6], 0. The “Log2 MIC” value is recorded as 0 in experiment [7]; 1 in experiment [8]; 6 in experiment [9]; 7 in experiment [10]; 7 in experiment [11]; 3 in experiment [12]. Besides, the “Log2 MIC” value in [13] is given as 7.

On to `CN1CCN(c2nc3c(cc2N)c(=O)c(C(=O)O)cn3C2CC2)CC1`, for which the “Log2 MIC” value in [1] is recorded as 5; in [2] it was 10; in [3], 12; in experiment [4], 10; in experiment [5], 12; in experiment [6], 6. The “Log2 MIC” value in [7] is 6; in experiment [8], 10; in experiment [9], 5; in [10], 5; in [11] it was 5; in experiment [12], 0. Further, the “Log2 MIC” value in experiment [13] is reported as 5.

Consider `Nc1cc2c(=O)c(C(=O)O)cn(C3CC3)c2cc1N1CCNCC1`, for which the “Log2 MIC” value in experiment [1] is listed as 3; in experiment [2] it was 9; in [3], 12; in experiment [4], 9; in experiment [5], 9; in experiment [6] it was 2. Also, the “Log2 MIC” value in experiment [7] was 6; in experiment [8], 8; in experiment [9], 3; in [10] it was 3; in experiment [11], 1; in experiment [12], 0. In addition, in experiment [13], the “Log2 MIC” value is on record as 1.

The values above are taken from ChEMBL document CHEMBL1130043, “Chemometric methodologies in a quantitative structure-activity relationship study: the antibacterial activity of 6-aminoquinolones” (1997).
